Experimental data: ChEMBL document CHEMBL2311245, “Hypoxia-selective O6-alkylguanine-DNA alkyltransferase inhibitors: design, synthesis, and evaluation of 6-(benzyloxy)-2-(aryldiazenyl)-9H-purines as prodrugs of O6-benzylguanine” (J Med Chem, 2013)
Active and inactive are the calls of the source. No cut-off for these calls is given here.

What was measured:
Format in all cases: cell-based
[1] = biological target: T1, Methylated-DNA--protein-cysteine methyltransferase (Homo sapiens) (UniProt P16455); experiment: Inhibition of AGT in human DU145 cells assessed as potentiation of laromustine-induced cytotoxicity under hypoxic condition up to 10 uM treated 4 hrs prior to laromustine treatment measured after 24 hrs by clonogenic assay; conditions: DU-145
T1 sequence (whole entry): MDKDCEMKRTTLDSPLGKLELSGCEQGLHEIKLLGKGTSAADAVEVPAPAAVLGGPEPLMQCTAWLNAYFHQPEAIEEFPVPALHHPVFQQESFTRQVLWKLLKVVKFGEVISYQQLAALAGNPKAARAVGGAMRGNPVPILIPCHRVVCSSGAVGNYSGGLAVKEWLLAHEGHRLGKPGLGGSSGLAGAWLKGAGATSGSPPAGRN

[2] = system: EMT6; experiment: Prodrug activation in mouse EMT6 cells assessed as O6-benzylguanine formation under normoxic condition at 50 uM after 3 hrs by HPLC analysis; conditions: emt6, 3 h
[3] = system: DU-145; experiment: Prodrug activation in human DU145 cells assessed as O6-benzylguanine formation under normoxic condition at 50 uM over 3 hrs by HPLC analysis; conditions: du-145, 3 h
[4] = biological target: T1, Methylated-DNA--protein-cysteine methyltransferase (Homo sapiens); experiment: Inhibition of AGT in human DU145 cells assessed as potentiation of laromustine-induced cytotoxicity under hypoxic condition at >10 uM treated 4 hrs prior to laromustine treatment measured after 24 hrs by clonogenic assay; conditions: DU-145
[5] = biological target: T1, Methylated-DNA--protein-cysteine methyltransferase (Homo sapiens); experiment: Inhibition of AGT in human DU145 cells assessed as potentiation of laromustine-induced cytotoxicity under normoxic condition up to 10 uM treated 4 hrs prior to laromustine treatment measured after 24 hrs by clonogenic assay; conditions: DU-145
[6] = biological target: T1, Methylated-DNA--protein-cysteine methyltransferase (Homo sapiens); experiment: Inhibition of AGT in human DU145 cells assessed as potentiation of laromustine-induced cytotoxicity under normoxic condition up to 50 uM treated 4 hrs prior to laromustine treatment measured after 24 hrs by clonogenic assay; conditions: DU-145
[7] = biological target: T1, Methylated-DNA--protein-cysteine methyltransferase (Homo sapiens); experiment: Inhibition of AGT in human DU145 cells assessed as potentiation of laromustine-induced cytotoxicity under hypoxic condition up to 50 uM treated 4 hrs prior to laromustine treatment measured after 24 hrs by clonogenic assay; conditions: DU-145

Row | Drug metabolism [2] | Drug metabolism [3] | SMILES | inhibition [1] | inhibition [4] | inhibition [5] | inhibition [6] | inhibition [7]
1 | Not Active | Not Active | CN(C)c1ccc(/N=N/c2nc(OCc3ccccc3)c3nc[nH]c3n2)cc1 | Active | Active | inactive |  | 
2 |  |  | CN1CCN(c2ccc(/N=N/c3nc(OCc4ccccc4)c4nc[nH]c4n3)cc2)CC1 |  |  |  | inactive | Active
